Test results from paper PMC8235661, “Photoelectric Dye, NK-5962, as a Potential Drug for Preventing Retinal Neurons from Apoptosis: Pharmacokinetic Studies Based on Review of the Evidence” (Life, 2021).
Read-outs that look alike come from different tables or passages of the source.

Columns and labels:
[1] = test system: apoptotic cells in the retinal outer nuclear layer of RCS rats; experiment: Intravitreous injection of NK-5962 in RCS rats, TUNEL assay of retinal outer nuclear layer; type: in vivo, rat
Protocol: NK-5962 powder was dissolved in distilled deionized water at a concentration of 8.2 μg/mL (16 μM). This original stock solution of NK-5962 (8.2 μg/mL) was diluted with saline (0.9% sodium chloride) to make a series of 10-fold dilutions from 8.2 × 10^−4 to 8.2 μg/mL. Twenty male pink-eyed RCS rats (RCS/Jcl-rdy/rdy, p-, CLEA Japan, Inc., Tokyo, Japan) at the age of 4 weeks were assigned to 5 groups (n = 4) that received NK-5962 at 5 different concentrations. Intravitreous injection was performed twice at the age of 4 and 5 weeks (Figure 4A). This study was approved by the Animal Care and Use Committee at the Okayama University (Identifier OKU-2013441) and based on the Animal Welfare and Management Act in Japan.
RCS rats were anesthetized by intraperitoneal injection of ketamine (87 mg/kg body weight, Daiichi Sankyo, Tokyo, Japan) and xylasine (13 mg/kg, Bayer Japan, Osaka, Japan). Mydriasis was induced by 0.5% tropicamide and 0.5% phenylephrine instillation (Santen Pharmaceutical, Osaka, Japan) and corneal anesthesia was further obtained with 0.4% oxybuprokaine instillation (Santen Pharmaceutical, Osaka, Japan). Under a dissecting microscope, 3 μL of NK-5962 solution and saline (0.9% sodium chloride) was injected into the vitreous of the left eye and the right eye, respectively, with a 30-gauge needle attached to a Hamilton syringe (50 μL 1705 LT SYR; Hamilton Company, Reno, NV, USA). The needle was inserted almost at a perpendicular angle and at 1mm from the corneoscleral limbus to avoid the damage to the lens. Antibiotic (0.5% moxifloxacin, Novartis Pharma Japan, Tokyo, Japan) eye drops were instilled for both eyes. Each rat was housed in a standard rat cage in the 12 h light and dark cycle at the Animal Center of Okayama University. In a separate experiment, 3 rats were placed and maintained in constant darkness after intravitreous injection of NK-5962 at a concentration of 8.2 μg/mL (16 μM).
Apoptotic cells were detected by terminal deoxynucleotidyl transferase-mediated fluorescein-conjugated dUTP nick-end-labeling (TUNEL) assay, according to the manufacturer’s instructions (In Situ Cell Death Detection Kit, Roche Diagnostics, Mannheim, Germany). The images at the constant exposure time were captured by an Olympus FSX100 microscope that was equipped with the fluorescent filter cube U-MWIBA3. Five photographs in each of 5 retinal vertical sections per eye were taken and an entire frame (220 × 165 μm) of each photograph with ×40 NA0.95 objective lens was used for measurements. The number of TUNEL-positive cells in the outer nuclear layer at each retinal site (a, b, c and d, Figure 4B) was counted in each frame of photographs. The number of TUNEL-positive cells per 1,000 μm^2 of the outer nuclear layer was calculated for comparison by two-factor ANOVA. […]

[2] = Solubility assay in JP 1st and 2nd fluid; type: physicochemical
Protocol: The Japanese Pharmacopeia (JP) 1st fluid (pH 1.2) and JP 2nd fluid (pH 6.8) for dissolution testing were used for solubility measurements. The solution of a test compound was prepared by diluting 10 mM NK-5962 in 2 μL DMSO stock solution with 165 μL of JP 1st or 2nd fluid and then mixed at 37 °C for 4 h by rotation at 1000 rpm. After loading the mixed solution into 96-well MultiScreen Filter Plates (product number MSHVN4510, 0.45 μm hydrophilic PVDF membrane; Millipore, Bedford, MA, USA), filtration was performed by centrifugation. The filtrates were mixed with acetonitrile and analyzed by high-performance liquid chromatography-UV detection (HPLC-UV, 254 nm) or by liquid chromatography and tandem mass spectrometry (LC-MS/MS). Solubility was calculated by comparing the peak area of the filtrate mixture with that of a 100 μM standard solution.

In the case of `CCCCN(CCCC)c1ccc(C=Cc2sc3ccccc3[n+]2CC(=O)O)cc1.[Br-]` [NK-5962, 2-[2-[4-(dibutylamino)phenyl]ethenyl]-3-carboxymethylbenzothiazolium bromide], the “percent ratio of the number of TUNEL-positive cells versus saline” value ([1]; 1.6 μM NK-5962 intravitreous) is reported as 61%, the “percent ratio of the number of TUNEL-positive cells versus saline” value ([1]; 16 μM NK-5962 intravitreous) is reported as 56% and the EC50 ([1]; 16 μM × 3 μL / (3 + 13) μL, rat vitreous cavity estimated 13 μL, read-out: in vivo EC50 as intravitreous concentration) is reported as 3 µM. The EC50 ([1]; Rattus norvegicus, 3 μL intravitreous injection, read-out: EC50 (50% effective concentration), concentration of injected solution) was roughly 16 µM, the solubility at 4 h ([2]; JP 1st fluid pH 1.2, 37 °C, read-out: Solubility JP1 (pH 1.2)) was 79 µM and the “Solubility JP2 (pH 6.8)” value ([2]; JP 2nd fluid pH 6.8, 37 °C, 4 h) was “low”. For the same compound, the solubility at 4 h ([2]; JP 2nd fluid pH 6.8, 37 °C, read-out: Solubility JP2 (pH 6.8)) was 0.2 µM.
